Experimental data from patent publication US20250154525A1, “PLANT VIRUS MOVEMENT PROTEINS AND METHODS OF USING SAME” (Molecular Transfer, Inc., priority 2016, published 2025).

Tests used:
Test in all cases: GFP plasmid transfection with DOTMA/DOPE plus plant virus movement protein derived peptides (Example 2)
Format in all cases: cell-based
HuVec Cells = details: 42 hours
Protocol: (§1) Cells were plated to so that on the day of transfection the cells were 70% confluent in 96 well tissue culture plates. A DOMTA/DOPE Lipid solution (1:1 molar ratio) at 2 mg/mL in water were mixed with an equal volume of plant virus movement protein derived peptides that had the nucleic acid binding moiety RRRRRRRRRRRR (SEQ ID NO:109) or KKKKKKKKKKKKKKKK (SEQ ID NO: 102) covalently linked to the N-terminus, or C-terminus of each peptide during peptide synthesis. Peptides were at 2 mg/mL in water. The DOTMA/DOPE and the plant virus movement peptide solution the was diluted 1 to 1 (v/v) in water. DOMTA/DOPE/PEPTIDE solutions were added to 0.1 mL of a plasmid DNA solution (EF1Alpha eGFP plasmid) at 10 μg/mL in OptiMEM.
(§2) All solutions were at room temperature. A volume of 0.2 mL of a 10 μg/mL solution of DNA was aliquoted into each well of a non-tissue cultured treated plate. 1-6 μL of transfection reagents were added to DNA solutions respectively. The transfection reagent and DNA solution was mixed by pipetting up and down twice. Transfection complexes were formed for 10 minutes. After 10 minutes, 0.01 or 0.02 mL of the transfection complex was added to cells. HuVEC, HeLa, human adult keratinocytes, human primary adult fibroblast, and A549 cells all respectively received 0.01 mL of the transfection complex. Human skeletal muscle cells, mouse C2C12 cells, and Jurkat, cells received 0.02 mL of the transfection complex. Cells were incubated for 42 hours at 37° C. at 5% CO2. Plates were read on a fluorescent plate reader. Cells were also examined visually under a microscope to assess the extent of transfection (in terms of the percent of cells transfected) with a fluorescent microscope. Other modes of analysis, for example quantification with B-galactosidase or luciferase reports plasmids can also be used.

[1] = test system: Human Primary Fibroblast Cells; details: 42 hours
Protocol: as §1, §2

HeLa Cells = details: 1-6 μL of transfection reagents
Protocol: as §1, §2

[2] = value column 1 of 6, head not given, 1 µL transfection reagent
[3] = value column 3 of 6, head not given, 3 µL transfection reagent
[4] = value column 4 of 6, head not given, 4 µL transfection reagent

Row | Substance | Relative Fluorescence of Transfection of HuVEC Cells (HuVec Cells; Transfection Agent 1 μl) [Rf] | Relative Fluorescence of Transfection of HuVEC Cells (HuVec Cells; Transfection Agent 1.5 μl) [Rf] | Relative Fluorescence of Transfection of HuVEC Cells (HuVec Cells; Transfection Agent 2 μl) | Relative Fluorescence of Transfection of HuVEC Cells (HuVec Cells; Transfection Agent 3 μl) [Rf] | Relative Fluorescence of Transfection of HuVEC Cells (HuVec Cells; Transfection Agent 4 μl) [Rf] | Relative Fluorescence of Transfection of HuVEC Cells (HuVec Cells; Transfection Agent 6 μl) [Rf] | Relative Fluorescence of Transfection of Human Primary Fibroblast Cells ([1]; Transfection Agent 1 μl) [Rf] | Relative Fluorescence of Transfection of Human Primary Fibroblast Cells ([1]; Transfection Agent 1.5 μl) [Rf] | Relative Fluorescence of Transfection of Human Primary Fibroblast Cells ([1]; Transfection Agent 2 μl) [Rf] | Relative Fluorescence of Transfection of Human Primary Fibroblast Cells ([1]; Transfection Agent 3 μl) [Rf] | Relative Fluorescence of Transfection of Human Primary Fibroblast Cells ([1]; Transfection Agent 4 μl) [Rf] | Relative Fluorescence of Transfection of Human Primary Fibroblast Cells ([1]; Transfection Agent 6 μl) [Rf] | Relative Fluorescence of Transfection of Hela Cells (HeLa Cells; 2 µL transfection reagent) | Relative Fluorescence of Transfection of Hela Cells (HeLa Cells; 5 µL transfection reagent) | Relative Fluorescence of Transfection of Hela Cells (HeLa Cells; [2]) | Relative Fluorescence of Transfection of Hela Cells (HeLa Cells; [3]) | Relative Fluorescence of Transfection of Hela Cells (HeLa Cells; [4])
1 | 540 (RRRRRRRRRRRRVDYGKWERKPIRCASMSR) [compound 540] | 24771 | 34062 | 44744 Rf | 44087 | 45137 | 30023 | 29368 | 40610 | 35505 | 33853 | 33063 | 30219 | 35653 | 13917 | 6422 | 27970 | 18620
2 | 541 (RRRRRRRRRRRRGKWERKPIRCAS) [compound 541] | 27405 | 46446 | OVER | 40401 | 31568 | 28125 | 35030 | 44894 | 42097 | 31837 | 29537 | 28921 | 36476 | 20473 | 17145 | 37105 | 23644
3 | 544 (GVKRSYGAARGDDRRRPNVVAPYKAWRRRRRRRRRRRR) [compound 544] | 25788 | 28622 | 31245 Rf | 34718 | 31159 | 28639 | 31368 | 39311 | 37634 | 32892 | 31428 | 28367 | 19151 | 12759 | 10683 | 19877 | 16908
